Data published in patent publication US7897340B2, “Use of tumor susceptibilty gene 101 (TSG 101) as a prognostic and diagnostic marker” (The Board of Regents of the University of Texas System, priority 2006, dated 2011).

Assays:
Format in all cases: cell-based, human
[1] = system: p21; assay: p21 protein by immunoblotting in SKOV-3 cells; conditions: SKOV-3, after 4 days following siRNA transfection
Procedure: (§1) Cells transfected with either control or TSG101 siRNA were passaged and subsequently harvested on the appropriate days by trypsinizing cells, washing pelleted cells in PBS and then lysing cells in SDS lysis buffer. Protein concentration of cell lysates was assayed with the Bio-Rad protein assay reagent. […] Immunoblots were developed by enhanced chemiluminescence (Pierce, Rockford, Ill.).

[2] = system: CITED2; assay: CITED2 protein by immunoblotting in SKOV-3 cells; conditions: SKOV-3, immunoblotting
From the text: Antigen-antibody complexes were detected by enhanced chemiluminescence (Pierce).
(§2) A siRNA duplex specific for TSG101 (targeting TSG101 coding sequence 413-433) and a scrambled random control siRNA with matching GC content were obtained from Dharmacon. This specific TSG101 siRNA duplex (sense: CCUCCAGUCUUCUCUCGUCdTdT (SEQ ID NO: 7) and antisense: dTd[…] (SEQ ID NO: 8) have been successfully applied to suppress the expression of endogenous TSG101 in several high quality studies (Amit et al., 2004; Garrus et al., 2001; Hewitt et al., 2002; Ismaili et al., 2005). Transfection of the siRNAs was according to the manufacturer's instructions using Lipofectamine 2000 (Invitrogen).

[3] = system: SKOV-3 cells; assay: Nuclear DNA condensation staining (Hoechst); conditions: SKOV-3, day 5 following siRNA transfection
Procedure: 2-3×10^5 SKOV-3 cells were plated in 3 cm tissue culture plates containing polylysine coated coverslips, and transfected with either control or TSG101 siRNA. Cells on coverslips were stained 5 days post-transfection with Hoechst 22658 for 30 min, rinsed with PBS, and sealed onto glass slides. Nuclear DNA condensation was examined using a fluorescence microscope (Olympus BX51) equipped with a Hamamatsu digital camera (C4742-95).

[4] = system: TSG101; assay: TSG101 expression after siRNA by semiquantitative PCR and immunoblotting in SKOV-3 cells; conditions: SKOV-3, semi-quantitative PCR and immunoblotting
From the text: as §2
(§3) Total RNA was isolated from cells using Trizol reagent (Invitrogen), and concentration was determined by absorbance at 260 nm. Semiquantitative RT-PCR was carried out using 1 μg of isolated total RNA. Primers used for RT-PCR were TSG101 forward 5′-[…]-3′ (SEQ ID NO: 1), reverse 5′-[…]-3′ (SEQ ID NO:2), p21 forward 5′-[…]-3′ (SEQ ID NO: 9), reverse 5′-CCGTTTTCGACCCTGAGAG-3′ (SEQ ID NO:10).
as §1

[5] = system: CITED2 mRNA; assay: CITED2 mRNA by RT-PCR in SKOV-3 cells; conditions: SKOV-3, 3 days following siRNA transfection
Procedure: (§4) Total RNA was isolated from cells using Trizol reagent (Invitrogen), and concentration was determined by absorbance at 260 nm. Real-Time PCR analysis was carried out using fluorescent TSG101 primers on an Applied Biosystems Prism 7000 Sequence Detection System. RT-PCR was carried out for TSG101 and HIF-1α using 1 μg of isolated total RNA under the following parameters: 94° C. 1 min, 57° C. 1 min and 72° C. 1.5 min, 35 cycles. Primers used for RT-PCR were TSG10 forward 5′-[…]-3′ (SEQ ID NO: 1), reverse 5′-TTTCCTCC TTCATCCGCCATCTC-3′ (SEQ ID NO: 2), CITED2 forward 5′-[…]-3′ (SEQ ID NO: 3), reverse 5′-[…]-3′ (SEQ ID NO: 4), HIF-1a ? forward 5′-[…]-3′ (SEQ ID NO: 5), reverse 5′-[…]-3′ (SEQ ID NO: 6).
as §2

[6] = system: p21 mRNA; assay: p21 mRNA by RT-PCR in SKOV-3 cells; conditions: SKOV-3, after 4 days following siRNA transfection
Procedure: as §3

[7] = system: HIF-1α mRNA; assay: HIF-1α mRNA by RT-PCR in SKOV-3 cells; conditions: SKOV-3, 3 days following siRNA transfection
Procedure: as §4, §2

[8] = system: SKOV-3 cells; assay: Cell growth by counting
Procedure: FIGS. 11A-F show association of suppression of TSG101 expression with cell cycle arrest and growth inhibition. In FIG. 11A, SKOV-3 cells were transfected with TSG101 and control siRNAs and RNA and protein were isolated 48 hours post transfection. Levels of mRNA were determined by semiquantitative RT-PCR and protein levels were determined by immunoblotting, respectively. Similar results were obtained from more than 4 independent experiments. In FIG. 11B, TSG101 or control siRNA transfected cells were plated at 2.5×10^4 cells/well in 6 well plates and cell growth was determined by counting over successive days. Each data point represents the average of 3 wells. Control and TSG101 knockdown SKOV-3 cells were stained with propidium iodide and analyzed by FACS on day 4 (FIG. 11C) or day 6 (FIG. 11D) following transfection. Sub G1 cells are calculated as a supplemental population. In FIG. 11E, SKOV-3 cell lysates were obtained 6 days following transfection with control or TSG101 siRNA. Caspase activity was determined using the fluorogenic substrate DEVD-AFC. In FIG. 11F, control and TSG101 knockdown SKOV-3 cells on day 5 following siRNA transfection were stained using Hoechst 22658 and Nuclear condensation was observed on a fluorescent microscope. Cells with condensed/fragmented DNA were quantified from at least 8 images, and represented as a percentage of the total number of cells. […]

[9] = system: SKOV-3 cells; assay: Flow cytometry cell cycle analysis (propidium iodide)
Procedure: SKOV-3 cells transfected with either TSG101 or control siRNA were grown and harvested 4 and 6 days after transfection. 1×10^6 cells were trypsinized from 10 cm plates and transferred to FACS tubes, washed twice with PBS, and then fixed with 70% ethanol for 2 h on ice. Ethanol was removed by centrifugation and cells were rehydrated in PBS at room temperature for 5 min. Cells were centrifuged to remove PBS and stained with 1 ml of propidium iodide staining solution (0.1% Triton X-100, 0.2 mg/ml RNAase A, 0.05 mg/ml propidium iodide, prepared fresh) for 1 h at room temperature. Cellular DNA content was then determined on a Becton-Dickinson FACS-Scan apparatus.

TSG101 siRNA: siRNA duplex from Dharmacon targeting TSG101 coding sequence 413-433, SEQ ID NO: 7 and 8 (chain 1 CCUCCAGUCUUCUCUCGUCTT; chain 2 TTGGAGGUCAGAAGAGAGCAG; chemistry not fully specified; one strand is listed 3' to 5')
p21 protein level [1]: significantly upregulated
cellular levels of CITED2 protein [2]: significantly reduced
nuclear DNA condensation/fragmentation [3]: apparent increases
TSG101 expression (mRNA and protein) [4]: Suppression of TSG101 expression was confirmed
CITED2 mRNA expression [5]: significantly down-regulated
p21 messenger RNA level [6]: significantly upregulated
HIF-1α mRNA expression [7]: significantly down-regulated
cell number (cell growth) ([8]; SKOV-3, counting over successive days, vs scrambled control siRNA): decrease dramatically in number beginning 5 days post transfection
rate of cell growth, initial observations ([8]; SKOV-3, up to 72 h posttransfection): no significant cellular effects on cell growth
cellular DNA content vs control siRNA ([9]; SKOV-3, day 4): very similar
sub-G1 apoptotic cell debris ([9]; SKOV-3, day 4): not seen
G1/G0 phase cells ([9]; SKOV-3, day 6): decrease
number of cells in G2/M phase ([9]; SKOV-3, day 6): significant increase
sub-G1 apoptotic cell debris ([9]; SKOV-3, day 6): significant population
